Experiment [1] has as its target T1, Protein smoothened (Homo sapiens, UniProt Q99835). Description: Antagonist activity at smoothened (unknown origin) expressed in mouse Shh Light2 cells co-expressing Gli-dependent reporter gene assessed as inhibition of Shh signaling at 2 uM by dual luciferase reporter gene assay. In kind it is functional, cell-based. The note with it: Shh Light II.
The target in experiment [2] is T1, Protein smoothened. Kind of experiment: Antagonist activity at smoothened (unknown origin) expressed in mouse Shh Light2 cells co-expressing Gli-dependent reporter gene assessed as inhibition of Shh signaling at 0.5 uM by dual luciferase reporter gene assay. It is filed as functional, cell-based. The note with it: Shh Light II.
In experiment [3] the target is T1, Protein smoothened. Description: Antagonist activity at smoothened (unknown origin) expressed in mouse Shh Light2 cells co-expressing Gli-dependent reporter gene assessed as inhibition of Hh signaling by dual luciferase reporter gene assay. It is filed as functional, cell-based, Shh Light II.
Experiment [4] has as its target T1, Protein smoothened. Kind of experiment: Displacement of BODIPY-cyclopamine from human SMO cyclopamine-binding site expressed in HEK293 cells at 50 to 200 nM after 4 hrs by Hoechst 33342 staining-based assay. In kind it is cell-based.
A further experiment deals with A549. Kind of experiment: Antiproliferative activity against human A549 cells assessed as growth inhibition at 10 uM after 48 hrs by MTT assay. In kind it is functional, cell-based.
Experiment [5] can be described thus: Inhibition of Hedgehog signaling in mouse NIH/3T3 cells assessed as down regulation of mPTCH1 mRNA expression at 10 uM. It is filed as cell-based. The note with it: NIH3T3.
The subject of a further experiment is HCT-116. Kind of experiment: Antiproliferative activity against human HCT116 cells assessed as growth inhibition at 10 uM after 48 hrs by MTT assay. It is filed as functional, cell-based.
Experiment [6] is described as follows: Inhibition of hedgehog signaling in mouse MSC cells assessed as down regulation of alkaline phosphatase at 20 to 80 uM. It is filed as cell-based.
The test system of another experiment is SW1353. Description: Antiproliferative activity against human SW1353 cells assessed as growth inhibition at 10 uM after 48 hrs by MTT assay. In kind it is functional, cell-based.
The test system of another experiment is Daoy. Description: Antiproliferative activity against human DaOY cells assessed as growth inhibition at 10 uM after 48 hrs by MTT assay. It is filed as functional, cell-based.
The target of experiment [7] is T1, Protein smoothened. Kind of experiment: Displacement of BODIPY-cyclopamine from human SMO cyclopamine-binding site expressed in HEK293 cells at 10 to 100 nM after 4 hrs by Hoechst 33342 staining-based assay. In kind it is cell-based.
For the next experiment, the species on record is Danio rerio. Kind of experiment: Antagonist activity at smoothened in zebrafish embryo assessed as reduction in Gli-dependent RFP expression compound treated at 20 to 80 uM at 2 hrs post fertilization measured 36 hrs post fertilization.

Active and inactive are the calls of the source. The rule behind the calls is not given here.

We go through 22 compounds from ChEMBL document CHEMBL3124810, “Synthesis and biological evaluation of novel benzamide derivatives as potent smoothened antagonists” (Bioorg Med Chem Lett, 2014).

T1 sequence (Q99835 whole entry): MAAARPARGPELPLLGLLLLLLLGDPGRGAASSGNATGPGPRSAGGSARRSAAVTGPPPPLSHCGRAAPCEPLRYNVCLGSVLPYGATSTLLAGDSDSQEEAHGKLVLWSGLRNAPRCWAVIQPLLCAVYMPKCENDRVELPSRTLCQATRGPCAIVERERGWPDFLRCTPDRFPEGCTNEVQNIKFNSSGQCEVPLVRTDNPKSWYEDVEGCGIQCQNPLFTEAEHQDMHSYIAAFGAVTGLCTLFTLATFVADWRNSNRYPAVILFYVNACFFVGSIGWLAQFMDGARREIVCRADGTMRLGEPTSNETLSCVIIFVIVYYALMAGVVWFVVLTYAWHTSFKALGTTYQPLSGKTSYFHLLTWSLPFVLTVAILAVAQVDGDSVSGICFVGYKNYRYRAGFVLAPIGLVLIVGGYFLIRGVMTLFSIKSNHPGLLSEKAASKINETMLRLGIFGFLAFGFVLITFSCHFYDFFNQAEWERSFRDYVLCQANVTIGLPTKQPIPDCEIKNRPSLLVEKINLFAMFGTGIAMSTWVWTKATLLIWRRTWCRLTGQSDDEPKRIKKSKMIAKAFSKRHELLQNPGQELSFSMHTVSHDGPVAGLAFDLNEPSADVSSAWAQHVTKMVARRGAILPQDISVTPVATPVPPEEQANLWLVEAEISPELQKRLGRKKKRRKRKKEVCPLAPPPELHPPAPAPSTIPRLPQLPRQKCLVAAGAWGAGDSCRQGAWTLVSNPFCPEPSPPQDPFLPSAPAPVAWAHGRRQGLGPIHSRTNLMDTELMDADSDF

As to `CS(=O)(=O)c1ccc(C(=O)Nc2ccc(Cl)c(C(=O)Nc3cc(Cl)cc(Cl)c3)c2)c(Cl)c1`, on Protein smoothened [1], the inhibition worked out at 46.6%.
Turning to `CCOc1ccc(NC(=O)c2cc(NC(=O)c3ccc(S(C)(=O)=O)cc3Cl)ccc2Cl)cc1`, the inhibition at Protein smoothened [1] is 70.4%.
Same read-out and setting: with `CCc1ccccc1NC(=O)c1cc(NC(=O)c2ccc(S(C)(=O)=O)cc2Cl)ccc1Cl` the figure was 65.9%; with `CS(=O)(=O)c1ccc(C(=O)Nc2ccc(Cl)c(C(=O)Nc3ccc(Cl)cc3Cl)c2)c(Cl)c1`, 0%.
Regarding `CS(=O)(=O)c1ccc(C(=O)Nc2ccc(Cl)c(NC(=O)Nc3ccc(Cl)cc3)c2)c(Cl)c1`, the inhibition at Protein smoothened [1] was 0%. Besides, the inhibition result on Protein smoothened [2] was “inactive”.
In the case of `Cc1cccc(NC(=O)c2cc(NC(=O)c3ccc(S(C)(=O)=O)cc3Cl)ccc2Cl)c1C`, the inhibition on Protein smoothened [1] is 76.3%. On Protein smoothened [3], the concentration for half-maximal inhibition (IC50) was determined as 100 nM. For the same compound, at Protein smoothened [4], the outcome was Active.
Take `CS(=O)(=O)c1ccc(C(=O)Nc2ccc(Cl)c(NC(=O)Nc3ccc(Br)cc3F)c2)c(Cl)c1`: on Protein smoothened [1], the inhibition turned out to be 55.4%. The inhibition entry at Protein smoothened [2] is “inactive”.
For the compound `CS(=O)(=O)c1ccc(C(=O)Nc2ccc(Cl)c(NC(=O)Nc3ccc(C(F)(F)F)cc3Cl)c2)c(Cl)c1`, the concentration for half-maximal inhibition (IC50) on Protein smoothened [3] amounted to 300 nM.
Turning to `CS(=O)(=O)c1ccc(C(=O)Nc2ccc(Cl)c(NC(=O)c3ccccn3)c2)c(Cl)c1`, the inhibition on Protein smoothened [1] was determined as 53.2%.
Turning to `COc1ccc(NC(=O)c2cc(NC(=O)c3ccc(S(C)(=O)=O)cc3Cl)ccc2Cl)cc1`, the inhibition on Protein smoothened [1] stood at 69.8%.
Still for that read-out and setting: with `Cc1cc(C)cc(NC(=O)c2cc(NC(=O)c3ccc(S(C)(=O)=O)cc3Cl)ccc2Cl)c1` the figure was 56.8%.
For `CS(=O)(=O)c1ccc(C(=O)Nc2ccc(Cl)c(C(=O)Nc3cccc(O)c3)c2)c(Cl)c1`, the “growth inhibition (GI)” value in the experiment on A549, with HCT-116, in the experiment with SW1353 and in the experiment with Daoy was “Active” each time. The inhibition entry (in [5]; in [6]; in the experiment filed under Danio rerio) was “Active” in each case. The inhibition at Protein smoothened [1] is 72.2%. Also, at Protein smoothened [3], the 50% inhibitory concentration (IC50) came out at 40 nM. The outcome at Protein smoothened [7] was Active.
On to `Cc1ccccc1NC(=O)c1cc(NC(=O)c2ccc(S(C)(=O)=O)cc2Cl)ccc1Cl`, for which the inhibition at Protein smoothened [1] came to 73%.
In the case of `COc1ccc(NC(=O)Nc2cc(NC(=O)c3ccc(S(C)(=O)=O)cc3Cl)ccc2Cl)cc1`, the inhibition at Protein smoothened [1] came out at 73.8%. In addition, the inhibition entry at Protein smoothened [2] is “inactive”.
With `CS(=O)(=O)c1ccc(C(=O)Nc2ccc(Cl)c(C(=O)Nc3cccnc3)c2)c(Cl)c1`, the inhibition at Protein smoothened [1] was 72.9%.
For the compound `CS(=O)(=O)c1ccc(C(=O)Nc2ccc(Cl)c(NC(=O)c3ccc(Cl)s3)c2)c(Cl)c1`, the inhibition at Protein smoothened [1] was determined as 51.4%.
For `Cc1ccc(NC(=O)c2cc(NC(=O)c3ccc(S(C)(=O)=O)cc3Cl)ccc2Cl)cc1`, the inhibition on Protein smoothened [1] worked out at 67.5%.
With `CS(=O)(=O)c1ccc(C(=O)Nc2ccc(Cl)c(NC(=O)c3cccc(C(F)(F)F)c3)c2)c(Cl)c1`, the inhibition on Protein smoothened [1] amounted to 28.4%.
As for `COc1cc(OC)cc(C(=O)Nc2cc(NC(=O)c3ccc(S(C)(=O)=O)cc3Cl)ccc2Cl)c1`, the inhibition at Protein smoothened [1] amounted to 3.6%.
`CCOc1ccc(NC(=O)Nc2cc(NC(=O)c3ccc(S(C)(=O)=O)cc3Cl)ccc2Cl)cc1`: the inhibition on Protein smoothened [1] was 66.1%. The inhibition result on Protein smoothened [2] is “inactive”.
Take `CS(=O)(=O)c1ccc(C(=O)Nc2ccc(Cl)c(NC(=O)c3ccc(Cl)cn3)c2)c(Cl)c1`: the inhibition at Protein smoothened [1] came out at 30.5%.
Regarding `CS(=O)(=O)c1ccc(C(=O)Nc2ccc(Cl)c(-c3ccccn3)c2)c(Cl)c1`, the “growth inhibition (GI)” value in the experiment with A549, with HCT-116, in the experiment with SW1353 and with Daoy was “Active” in each case. Besides, the inhibition entry (in [5]; in experiment [6]; in the experiment filed under Danio rerio) was “Active” each time.
